Data published in PMC6225228, “Design, Synthesis and Evaluation of N-pyrazinylbenzamides as Potential Antimycobacterial Agents” (Molecules : A Journal of Synthetic Chemistry and Natural …, 2018).
Converted amounts (≈) assume the structure as drawn. Where two headings read alike, the source gives them in different places.

Key:
[1] = test system: HepG2 cells; conditions: read-out: Amide -CONH- IC50; cited from earlier work
[2] = test system: Mycobacterium tuberculosis H37Rv (Mtb); conditions: Šula's semisynthetic medium, pH = 5.6, turbidity, cited from earlier work; for Amides MIC: first value; for Amides MIC (value in parentheses): second value in parentheses
[3] = test system: Candida glabrata 20/I; experiment: Antifungal microdilution broth, CG; assay type: cell-based; conditions: Nakaseomyces glabratus, 20/I, read-out: MIC CG
[4] = human, HepG2 cells
[5] = test system: Escherichia coli CCM 4517; experiment: Antibacterial microdilution broth, EC; assay type: cell-based; conditions: Escherichia coli, read-out: MIC EC
[6] = test system: Aspergillus fumigatus 231; experiment: Antifungal microdilution broth, AF; assay type: cell-based; conditions: read-out: MIC AF
[7] = test system: Trichophyton interdigitale 445; experiment: Antifungal microdilution broth, TI; assay type: cell-based; conditions: read-out: MIC TI
[8] = test system: Enterococcus sp. J 14365/08; experiment: Antibacterial microdilution broth, EF; assay type: cell-based; conditions: Enterococcus, read-out: MIC EF
[9] = test system: Staphylococcus aureus CCM 4516/08; experiment: Antibacterial microdilution broth, SA; assay type: cell-based; conditions: Staphylococcus aureus
[10] = test system: Candida albicans ATCC 44859; experiment: Antifungal microdilution broth, CA; assay type: cell-based; conditions: Candida albicans, read-out: MIC CA
[11] = test system: M. avium ssp. avium CNCTC My 80/72 (ATCC 15769); experiment: Antimycobacterial microdilution MABA, M. avium; assay type: cell-based, Mycobacterium avium; conditions: Mycobacterium avium, ATCC15769, pH 6.6, read-out: M. avium ATCC 15769 MIC
[12] = test system: Staphylococcus epidermidis H 6966/08; experiment: Antibacterial microdilution broth, SE; assay type: cell-based; conditions: read-out: MIC SE
[13] = test system: Pseudomonas aeruginosa CCM 1961; experiment: Antibacterial microdilution broth, PA; assay type: cell-based; conditions: Pseudomonas aeruginosa, read-out: MIC PA
[14] = test system: Mycobacterium smegmatis CCM 4622 (ATCC 607); experiment: Antimycobacterial microdilution, M. smegmatis; assay type: cell-based; conditions: Mycolicibacterium smegmatis, read-out: M. smeg. ATCC 607 MIC
[15] = test system: Candida krusei E28; experiment: Antifungal microdilution broth, CK; assay type: cell-based; conditions: Pichia kudriavzevii, read-out: MIC CK
[16] = test system: Lichtheimia corymbifera 272; experiment: Antifungal microdilution broth, LC; assay type: cell-based; conditions: read-out: MIC LC
[17] = test system: Candida tropicalis 156; experiment: Antifungal microdilution broth, CT; assay type: cell-based; conditions: read-out: MIC CT
[18] = test system: Mycobacterium tuberculosis H37Rv CNCTC My 331/88 (ATCC 27294); experiment: Antimycobacterial microdilution MABA, M. tuberculosis; assay type: cell-based; conditions: Mycobacterium tuberculosis
[19] = test system: M. kansasii CNCTC My 235/80 (ATCC 12478); experiment: Antimycobacterial microdilution MABA, M. kansasii; assay type: cell-based, Mycobacterium kansasii; conditions: Mycobacterium kansasii, ATCC12478, pH 6.6, read-out: M. kans. ATCC 12478 MIC, Middlebrook 7H9 with OADC, pH 6.6, MABA
[20] = test system: Staphylococcus aureus H 5996/08 methicillin resistant; experiment: microbe, parasite or virus in culture; assay type: cell-based; conditions: for MIC: Staphylococcus aureus, MRSA, read-out: MIC MRSA
[21] = test system: Trichosporon asahii 1188; experiment: Antifungal microdilution broth, TA; assay type: cell-based; conditions: read-out: MIC TA
[22] = Confirmatory prolonged HepG2 cytotoxicity, CellTox Green Cytotoxicity Assay; conditions: human, HepG2 cells

Which IC50 [1] does the source give for O=C(Nc1ccccc1O)c1cnc(Cl)cn1 [Amide R1=5-Cl R2=2-OH] here?
The IC50 was 30 µM.

And the “Amides MIC” value [2]?
The value was 3.13 µg/mL.

And the “Amides MIC (value in parentheses)” value [2]?
The value was 0.78 µg/mL.

With CCc1ccc(NC(=O)c2cnc(Cl)cn2)cc1 [Amide R1=5-Cl R2=4-Et] as the compound, how does the IC50 [1] read?
Its IC50 is 7.2 µM.

And the “Amides MIC” value [2]?
The value was 1.56 µg/mL.

What about the “Amides MIC (value in parentheses)” value [2] of the same compound?
Its value is 0.78 µg/mL.

With O=C(Nc1cnc(Cl)cn1)c1ccccc1O [Compound 2b] as the compound, how does the MIC ([3]; 24 h) read?
Its MIC is 125 µM (≈ 31.2 µg/mL).

What about the MIC ([3]; 48 h) of the same compound?
Its MIC is 125 µM (≈ 31.2 µg/mL).

What about the IC50 at 24 h [4] of the same compound?
The IC50 at 24 h was 155 µM.

What about the MIC ([5]; CCM4517, 24 h) of the same compound?
Its MIC is greater than 500 µM.

And the MIC ([5]; CCM4517, 48 h)?
Its MIC is greater than 500 µM.

What about the melting point of the same compound?
The melting point was 197.7 to 198.2 °C.

And the MIC ([6]; Aspergillus fumigatus, 231, 24 h)?
The MIC was 125 µM (≈ 31.2 µg/mL).

And the MIC ([6]; Aspergillus fumigatus, 231, 48 h)?
Its MIC is 125 µM (≈ 31.2 µg/mL).

And the MIC ([7]; Trichophyton interdigitale, 445, 72 h)?
The MIC was 125 µM (≈ 31.2 µg/mL).

What about the MIC ([7]; Trichophyton interdigitale, 445, 120 h) of the same compound?
Its MIC is 125 µM (≈ 31.2 µg/mL).

And the MIC ([8]; SP.J14365/08, 24 h)?
Its MIC is greater than 500 µM.

What about the MIC ([8]; SP.J14365/08, 48 h) of the same compound?
Its MIC is greater than 500 µM.

And the MIC ([9]; CCM4516, 24 h, read-out: MIC SA, 24 h)?
Its MIC is 15.6 µM (≈ 3.9 µg/mL).

And the MIC ([9]; CCM4516, 48 h, read-out: MIC SA, 48 h)?
The MIC was 15.6 µM (≈ 3.9 µg/mL).

What about the MIC ([10]; ATCC44859, 24 h) of the same compound?
The MIC was 62.5 µM (≈ 15.6 µg/mL).

And the MIC ([10]; ATCC44859, 48 h)?
The MIC was 62.5 µM (≈ 15.6 µg/mL).

And the MIC [11]?
Its MIC is 50 µg/mL (≈ 200 µM).

What about the MIC ([12]; 24 h) of the same compound?
Its MIC is 62.50 µM (≈ 15.6 µg/mL).

What about the MIC ([12]; 48 h) of the same compound?
The MIC was 62.50 µM (≈ 15.6 µg/mL).

What about the MIC ([12]; Staphylococcus epidermidis, H6966/08, 24 h) of the same compound?
Its MIC is 62.5 µM (≈ 15.6 µg/mL).

What about the MIC ([12]; Staphylococcus epidermidis, H6966/08, 48 h) of the same compound?
Its MIC is 62.5 µM (≈ 15.6 µg/mL).

What about the MIC ([13]; CCM1961, 72 h) of the same compound?
Its MIC is greater than 500 µM.

What about the MIC ([13]; CCM1961, 120 h) of the same compound?
The MIC was greater than 500 µM.

And the MIC [14]?
The MIC was 15.6 µg/mL (≈ 62.6 µM).

And the MIC ([15]; E28, 24 h)?
Its MIC is 125 µM (≈ 31.2 µg/mL).

And the MIC ([15]; E28, 48 h)?
Its MIC is 125 µM (≈ 31.2 µg/mL).

What about the MIC ([16]; Lichtheimia corymbifera, 272, 24 h) of the same compound?
The MIC was 62.5 µM (≈ 15.6 µg/mL).

What about the MIC ([16]; Lichtheimia corymbifera, 272, 48 h) of the same compound?
Its MIC is 125 µM (≈ 31.2 µg/mL).

What about the MIC ([17]; Candida tropicalis, 156, 24 h) of the same compound?
The MIC was 125 µM (≈ 31.2 µg/mL).

What about the MIC ([17]; Candida tropicalis, 156, 48 h) of the same compound?
Its MIC is 125 µM (≈ 31.2 µg/mL).

And the MIC ([18]; read-out: Mtb H37Rv ATCC 27294 MIC, Middlebrook 7H9 with OADC growth supplement, pH = 6.6, MABA)?
The MIC was 12.5 µg/mL.

What about the MIC ([18]; read-out: Mtb MIC, molar concentration) of the same compound?
The MIC was 50.1 µM.

And the MIC [19]?
The MIC was 50 µg/mL (≈ 200 µM).

And the “MIC MRSA” value ([20]; 24 h)?
Its value is 62.50 µM (≈ 15.6 µg/mL).

And the “MIC MRSA” value ([20]; 48 h)?
Its value is 62.50 µM (≈ 15.6 µg/mL).

And the MIC ([20]; 24 h)?
Its MIC is 62.5 µM (≈ 15.6 µg/mL).

And the MIC ([20]; 48 h)?
The MIC was 62.5 µM (≈ 15.6 µg/mL).

And the MIC ([21]; Trichosporon asahii, 1188, 24 h)?
The MIC was 62.5 µM (≈ 15.6 µg/mL).

And the MIC ([21]; Trichosporon asahii, 1188, 48 h)?
Its MIC is 125 µM (≈ 31.2 µg/mL).

What about the IC50 at 24 h [22] of the same compound?
Its IC50 at 24 h is 545 µM.

What about the IC50 at 48 h [22] of the same compound?
The IC50 at 48 h was 188 µM.
